Test results as given in patent US20220249597A1, “MIF INHIBITORS AND METHODS OF USE THEREOF” (The Johns Hopkins University, priority 2016, published 2022).
{Biotin} = biotin label

Tests used:
MIF [1] = biological target: T1, MIF (Homo sapiens, UniProt P14174); experiment: MIF nuclease assay with small DNA substrates; format: biochemical; set-up: GST (N, cleaved yes); made in house; host or cells: Escherichia coli; key to Endo-Nuclease Activity / Exo-Nuclease Activity: Y:yes; N:no; settings: for Endo-Nuclease Activity / Exo-Nuclease Activity: MIF on the listed DNA substrate; for MIF cleavage of DNA substrate: single or double stranded substrates, ds substrates MIF 1-4 μM
T1 sequence (P14174 2-115 limits assumed): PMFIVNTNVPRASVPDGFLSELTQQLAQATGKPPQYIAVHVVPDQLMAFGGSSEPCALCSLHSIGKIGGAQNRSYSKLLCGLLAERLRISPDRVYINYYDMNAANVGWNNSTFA
From the text: (§1) Human endoG (NM_004435), cyclophilin A (NM_021130), mouse AIF (NM_012019), human MIF (NM_002415) cDNA and their variants were subcloned into glutathione S-transferase (GST)-tagged pGex-6P-1 vector (GE Healthcare) by EcoRI and XhoI restriction sites and verified by sequencing. The protein was expressed and purified from Escherichia coli by glutathione Sepharose. The GST tag was subsequently proteolytically removed for the nuclease assay. MIF point mutants were constructed by polymerase chain reaction (PCR) and verified by sequencing. The purity of MIF proteins that were used in the nuclease assays was further confirmed by mass spectrometry. MIF proteins purified by FPLC were also used in the nuclease assays and no obvious difference was observed between FPLC MIF and non-FPLC MIF proteins. GST protein was used as a negative control in the nuclease assay.

MIF [2] = biological target: T1, MIF; experiment: Electrophoretic mobility shift assay (EMSA) of MIF with biotin-labeled DNA substrates; format: binding; set-up: GST (N, cleaved yes); made in house; host or cells: Escherichia coli; settings: 5′ biotin labeled single stranded substrates, 10 mM Mg2+
Description: EMSA assay was performed using LightShift Chemiluminescent EMSA kit (Thermo Scientific) following the manufactures instruction. Briefly, purified MIF protein (2 μM) was incubated with biotin-labeled DNA substrates (10 nM) in the binding buffer containing 10 mM MgCl2 for 30 min on ice. Then samples were separated on 6% retardation polyacrylamide followed by electrophoretic transfer to nylon membrane.
as §1

HeLa cells = experiment: Pulse-field gel electrophoresis assay of MNNG-induced DNA damage in HeLa cells; format: cell-based, human; settings: DPQ 30 μM; ISO-1 100 μM
From the text: FIGS. 2A-2D. FIG. 2. MIF is a novel nuclease that cleaves genomic DNA.

MIF [3] = biological target: T1, MIF; settings: Mg2+ 10 mM with EDTA 50 mM or Ca2+ 2 mM with EDTA 25 mM
Description: (A) In vitro MIF nuclease assay using pcDNA as substrate. […] (C) Pulse-field gel electrophoresis assay of MNNG-induced DNA damage in MIF deficient HeLa cells and wild type HeLa cells treated with or without DPQ (30 μM) or ISO-1 (100 μM).
The reaction was terminated with loading buffer containing 10 mM EDTA and incubation on ice. […] Small DNA substrates were separated on 15% or 25% TBE-urea polyacrylamide (PAGE) gel or 20% TBE PAGE gel. Then gel was stained with 0.5 μg/ml Ethidium Bromide (EtBr) followed by electrophoretic transfer to nylon membrane. Then, Biotin-labeled DNA is further detected by chemiluminescence using Chemiluminescent Nucleic Acid Detection Module (Thermo Scientific).

Row | Compound | Endo-Nuclease Activity (MIF [1]) | Exo-Nuclease Activity (MIF [1]) | MIF cleavage of DNA substrate (MIF [1]) | MIF binding to ssDNA substrate (DNA/MIF complex formation) (MIF [2]) | Effect on MNNG induced DNA damage / DNA cleavage (HeLa cells) | Effect on MIF nuclease activity against human genomic DNA (MIF [3])
1 | m10: 5′ biotin ssDNA MIF substrate, SEQ ID NO: 87 (DNA CTCAGCCTCCGGATTACAGGCAAGTAGCTG; DNA, 5' {Biotin}, backbone and methylation of C not given here) | Y | Y | – | – | – | –
2 | m7: 5′ biotin ssDNA MIF substrate, SEQ ID NO: 84 (DNA AAAAGCCTCCCAAGTAGCTGGGATTACAGG; DNA, 5' {Biotin}, backbone and methylation of C not given here) | Y | Y | – | – | – | –
3 | m2: 5′ biotin ssDNA MIF substrate, SEQ ID NO: 79 (DNA CTCAGCCTCCAAAAAAAAAAGGATTACAGG; DNA, 5' {Biotin}, backbone and methylation of C not given here) | Y | Y | – | – | – | –
4 | L3: 5′ biotin non-related sequence with stem loop like structure, SEQ ID NO: 13 (DNA ACCTAAATGCTAGAGCTCGCTGATCAGCCT; DNA, 5' {Biotin}, backbone and methylation of C not given here) | Y | Y | cleaved by MIF, but with less efficiency | weakly binds | – | –
5 | PA^30: 5′ biotin-poly A, SEQ ID NO: 9 | N | Y | cleave | fails to bind | – | –
6 | m20: 5′ biotin ssDNA MIF substrate, SEQ ID NO: 95 (DNA AAAAATCTCAGCCTCCCAAGTAGCTGGGAT; DNA, 5' {Biotin}, backbone and methylation of C not given here) | Y | Y | – | – | – | –
7 | m8: 5′ biotin ssDNA MIF substrate, SEQ ID NO: 85 (DNA CTCAAAATCCCAAAAAAAAGGGATTACAGG; DNA, 5' {Biotin}, backbone and methylation of C not given here) | Y | Y | – | – | – | –
8 | m16: 5′ biotin ssDNA MIF substrate, SEQ ID NO: 92 (DNA CTCAGCCTCCCTTGTAGCTGGGATTACAGG; DNA, 5' {Biotin}, backbone and methylation of C not given here) | Y | Y | – | – | – | –
9 | m6: 5′ biotin ssDNA MIF substrate, SEQ ID NO: 83 (DNA CTCAAAAAAACAAGTAGCTGGGATTACAGG; DNA, 5' {Biotin}, backbone and methylation of C not given here) | Y | Y | – | – | – | –
10 | COC(=O)CC1CC(c2ccc(O)cc2)=NO1 (stereo not drawn) [ISO-1] | – | – | – | – | fails to prevent MNNG induced DNA damage | –
11 | m15: 5′ biotin ssDNA MIF substrate, SEQ ID NO: 91 (DNA CTCAGCCTCCCAAGTAGCAGGGATTACAGG; DNA, 5' {Biotin}, backbone and methylation of C not given here) | Y | Y | – | – | – | –
12 | m14: 5′ biotin ssDNA MIF substrate, SEQ ID NO: 90 (DNA CTCAGCCTCCCAAGTAAACGGGATTACAGG; DNA, 5' {Biotin}, backbone and methylation of C not given here) | Y | Y | – | – | – | –
13 | O=C(O)CN(CCN(CC(=O)O)CC(=O)O)CC(=O)O [EDTA] | – | – | – | – | – | blocks MIF's nuclease activity
14 | LF: 5′ biotin ssDNA MIF substrate, SEQ ID NO: 7 (DNA AAAAAAACTCAGCCTCCCAAGTAGCTGGGA; DNA, 5' {Biotin}, backbone and methylation of C not given here) | N | N | – | no obvious effect on the DNA/MIF complex formation | – | –
15 | m11: 5′ biotin ssDNA MIF substrate, SEQ ID NO: 88 (DNA CTCAGCCTCCCAAGTAAAAGGGATTACAGG; DNA, 5' {Biotin}, backbone and methylation of C not given here) | Y | Y | – | – | – | –
16 | m12: 5′ biotin ssDNA MIF substrate, SEQ ID NO: 89 (DNA CTCAGCCTCCCAAGTAAATGGGATTACAGG; DNA, 5' {Biotin}, backbone and methylation of C not given here) | Y | Y | – | – | – | –
17 | m9: 5′ biotin ssDNA MIF substrate, SEQ ID NO: 86 (DNA CAAGTAGCTGCTCAGCCTCCGGATTACAGG; DNA, 5' {Biotin}, backbone and methylation of C not given here) | Y | Y | – | – | – | –
18 | SL: 5′ biotin ssDNA MIF substrate, SEQ ID NO: 6 (DNA CCTGTAATCCCAAGTAGCTGGGATTACAGG; DNA, 5' {Biotin}, backbone and methylation of C not given here) | N | N | – | – | – | –
19 | m17: 5′ biotin ssDNA MIF substrate, SEQ ID NO: 93 (DNA CTCAAAATCCCAAGTAGCTGGGATTACAGG; DNA, 5' {Biotin}, backbone and methylation of C not given here) | Y | Y | – | – | – | –
20 | m5: 5′ biotin ssDNA MIF substrate, SEQ ID NO: 82 (DNA CTCAGCCTCCCAAAAAAAAGGGATTACAGG; DNA, 5' {Biotin}, backbone and methylation of C not given here) | Y | Y | – | – | – | –
21 | RF: 5′ biotin ssDNA MIF substrate, SEQ ID NO: 8 (DNA TCCCAAGTAGCTGGGATTACAGGAAAAAAA; DNA, 5' {Biotin}, backbone and methylation of C not given here) | Y | Y | – | reduces the DNA-MIF binding | – | –
22 | m18: 5′ biotin ssDNA MIF substrate, SEQ ID NO: 94 (DNA CTCAATTTCCCAAGTAGCTGGGATTACAGG; DNA, 5' {Biotin}, backbone and methylation of C not given here) | Y | Y | – | – | – | –
23 | m3: 5′ biotin ssDNA MIF substrate, SEQ ID NO: 80 (DNA CTCAGCCTCCCAAGTAGCTGAAAAAAAAAA; DNA, 5' {Biotin}, backbone and methylation of C not given here) | Y | Y | – | – | – | –
24 | BS2: 5′ biotin ssDNA MIF substrate, SEQ ID NO: 96 (DNA TGGGATTACAGGCGTGAGCCACCACGCCC; DNA, 5' {Biotin}, backbone and methylation of C not given here) | Y | Y | – | – | – | –
25 | 3F1: 5′ biotin ssDNA MIF substrate, SEQ ID NO: 12 (DNA AAAAAAAAAACAAGTAGCTGGGATTACAGG; DNA, 5' {Biotin}, backbone and methylation of C not given here) | Y | Y | – | clearly binds | – | –
26 | m4: 5′ biotin ssDNA MIF substrate, SEQ ID NO: 81 (DNA CTCAGCCAAAAAAATAGCTGGGATTACAGG; DNA, 5' {Biotin}, backbone and methylation of C not given here) | Y | Y | – | – | – | –
